Assay results published in US10239843B2 (CANCER RESEARCH TECHNOLOGY LIMITED, priority 2014, dated 2019).
Read-outs that look alike come from different tables or passages of the source.

How the values were obtained:
[1] = tested on: PARG in HeLa cell line; assay: PARG cell assay (PAR chain immunofluorescence after MMS); type: cell-based; details: HeLa cells
How it was run: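 HeLa cells were dosed with compound for 1 h, then given MMS at 50 μg/mL final for a further hour. Cells were methanol-fixed, permeabilised and stained overnight at 4° C with anti-PAR monoclonal antibody. Retained nuclear PAR chains, detected by indirect immunofluorescence, indicate PARG inhibition.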

[2] = molecular target: Human Full Length PARG (Homo sapiens (Human), UniProt Q86W56); assay: PARG enzyme assay (TR-FRET); type: biochemical
Sequence of Human Full Length PARG (Q86W56 whole entry): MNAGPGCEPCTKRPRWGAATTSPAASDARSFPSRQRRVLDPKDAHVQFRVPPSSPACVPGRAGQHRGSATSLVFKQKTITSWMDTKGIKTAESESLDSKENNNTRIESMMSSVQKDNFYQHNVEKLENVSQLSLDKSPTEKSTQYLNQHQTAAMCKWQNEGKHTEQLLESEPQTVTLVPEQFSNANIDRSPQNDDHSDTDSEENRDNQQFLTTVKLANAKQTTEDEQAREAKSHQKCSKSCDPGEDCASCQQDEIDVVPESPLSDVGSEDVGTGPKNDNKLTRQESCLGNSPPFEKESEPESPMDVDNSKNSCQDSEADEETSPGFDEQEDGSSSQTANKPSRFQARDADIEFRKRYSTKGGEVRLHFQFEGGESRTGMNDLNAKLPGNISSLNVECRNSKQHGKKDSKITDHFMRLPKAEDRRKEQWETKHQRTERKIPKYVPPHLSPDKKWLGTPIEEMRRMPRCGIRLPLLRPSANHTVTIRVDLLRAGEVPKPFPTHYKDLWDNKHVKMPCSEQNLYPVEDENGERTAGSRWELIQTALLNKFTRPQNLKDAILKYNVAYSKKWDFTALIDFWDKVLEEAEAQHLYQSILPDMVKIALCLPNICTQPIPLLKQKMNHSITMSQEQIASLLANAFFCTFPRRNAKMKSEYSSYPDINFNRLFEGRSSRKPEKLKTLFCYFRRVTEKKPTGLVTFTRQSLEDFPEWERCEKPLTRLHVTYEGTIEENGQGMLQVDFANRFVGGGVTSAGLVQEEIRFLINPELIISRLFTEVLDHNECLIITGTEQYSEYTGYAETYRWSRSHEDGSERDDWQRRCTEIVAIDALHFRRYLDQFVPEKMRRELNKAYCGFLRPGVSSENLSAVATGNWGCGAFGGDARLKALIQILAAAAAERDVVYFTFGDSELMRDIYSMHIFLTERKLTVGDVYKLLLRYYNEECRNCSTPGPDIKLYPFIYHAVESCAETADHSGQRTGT

[3] = Homo sapiens, MMS treatment, read-out: PARG Cell IC50
[4] = Homo sapiens, MMS 50 μg/mL, read-out: PARG Cell IC50 Geomean
[5] = read-out: PARG Biochem IC50 Geomean
[6] = MMS 50 μg/mL, read-out: PARG Cell IC50 Geomean
[7] = MMS treatment, read-out: PARG Cell IC50

| Structure (SMILES) | IC50 [1, 3] | IC50 ([2]; read-out: PARG Biochem IC50) | IC50 [1, 4] | IC50 [2, 5] | other results |
| --- | --- | --- | --- | --- | --- |
| Cn1cc(Cn2c(=O)c3cc(S(=O)(=O)NC4(CF)CC4)ccc3n(CC(F)(F)F)c2=O)cn1 [Example 623, N-[1-(Fluoromethyl)cyclopropyl]-3-[(1-methylpyrazol-4-yl)methyl]-2,4-dioxo-1-(2,2,2-trifluoroethyl)quinazoline-6-sulfonamide] | 10000 nM | 2670 nM |  |  |  |
| Cn1cc(Cn2c(=O)c3cc(S(=O)(=O)NC4(C)CC4)ccc3n(Cc3ccc(F)cc3)c2=O)cn1 [Example 171] |  |  | 103 nM | 49 nM |  |
| Cc1cc(Cn2c(=O)n(Cc3c(C)noc3C)c(=O)c3cc(S(=O)(=O)NC4(C)CC4)ccc32)n(C)n1 [Example 166] |  |  | 229 nM | 131 nM |  |
| Cc1ncc(Cn2c(=O)c3cc(S(=O)(=O)NC4(C#N)CC4)ccc3n(Cc3sc(C)nc3C)c2=O)s1 [Example 401, N-(1-Cyanocyclopropyl)-1-[(2,4-dimethylthiazol-5-yl)methyl]-3-[(2-methylthiazol-5-yl)methyl]-2,4-dioxo-quinazoline-6-sulfonamide] | 101 nM | 8 nM |  |  |  |
| COC1(Cn2c(=O)n(Cc3cc(C)no3)c(=O)c3cc(S(=O)(=O)NC4(C)CC4)ccc32)CCCC1 [Example 471, 1-[(1-Methoxycyclopentyl)methyl]-N-(1-methylcyclopropyl)-3-[(3-methylisoxazol-5-yl)methyl]-2,4-dioxo-quinazoline-6-sulfonamide] | 241 nM | 550 nM |  |  |  |
| CCn1c(=O)n(Cc2cc(C)no2)c(=O)c2cc(S(=O)(=O)NC3(C)CC3)ccc21 [Example 304] |  |  | 113 nM | 329 nM |  |
| Cn1cc(Cn2c(=O)c3cc(S(=O)(=O)NC4(C)CC4)c(F)cc3n(Cc3ccc(F)cc3)c2=O)cn1 [Example 390, 7-Fluoro-1-[(4-fluorophenyl)methyl]-N-(1-methylcyclopropyl)-3-[(1-methylpyrazol-4-yl)methyl]-2,4-dioxo-quinazoline-6-sulfonamide] |  |  |  | 102 nM | IC50 [1, 6]: 70 nM |
| Cn1cc(Cn2c(=O)c3cc(S(=O)(=O)NC4(C)CC4)c(F)cc3n(CC3CCOC3)c2=O)cn1 (centres unmarked) [Example 395, 7-Fluoro-N-(1-methylcyclopropyl)-3-[(1-methylpyrazol-4-yl)methyl]-2,4-dioxo-1-(tetrahydrofuran-3-ylmethyl)quinazoline-6-sulfonamide] |  |  | 156 nM | 60 nM |  |
| COc1cccc(Cn2c(=O)n(Cc3c(C)noc3C)c(=O)c3cc(S(=O)(=O)NC4(C)CC4)ccc32)c1 [Example 169] |  |  |  | 294 nM | IC50 [1, 6]: 288 nM |
| Cc1nc(C)c(Cn2c(=O)n(C)c(=O)c3cc(S(=O)(=O)NC4(C#N)CC4)ccc32)s1 [Example 204] |  |  | 646 nM | 118 nM |  |
| Cc1cc(Cn2c(=O)c3cc(S(=O)(=O)NC4(CF)CC4)ccc3n(CC#N)c2=O)on1 [Example 523, 1-(Cyanomethyl)-N-[1-(fluoromethyl)cyclopropyl]-3-[(3-methylisoxazol-5-yl)methyl]-2,4-dioxo-quinazoline-6-sulfonamide] | 571 nM | 411 nM |  |  |  |
| Cn1cc(Cn2c(=O)[nH]c3c(C(N)=O)cc(S(=O)(=O)NC4(C)CC4)cc3c2=O)cn1 [Example 424, 6-[(1-Methylcyclopropyl)sulfamoyl]-3-[(1-methylpyrazol-4-yl)methyl]-2,4-dioxo-1H-quinazoline-8-carboxamide] | 13000 nM | 223 nM |  |  |  |
| Cc1cc(Cn2c(=O)c3cc(S(=O)(=O)NC4(C)CC4)ccc3n(CC3CC(C)(C)C3)c2=O)on1 [Example 477, 1-[(3,3-Dimethylcyclobutyl)methyl]-N-(1-methylcyclopropyl)-3-[(3-methylisoxazol-5-yl)methyl]-2,4-dioxo-quinazoline-6-sulfonamide] |  | 208 nM |  |  | IC50 [1, 7]: 403 nM |
| Cn1cc(Cn2c(OCC3(C)COC3)nc3cc(F)c(S(=O)(=O)NC4(C)CC4)cc3c2=O)cn1 [Example 397, 7-Fluoro-3-((1-methyl-1H-pyrazol-4-yl)methyl)-N-(1-methylcyclopropyl)-2-((3-methyloxetan-3-yl)methoxy)-4-oxo-3,4-dihydroquinazoline-6-sulfonamide] | 256 nM | 282 nM |  |  |  |
| Cc1cc(Cn2c(=O)c3cc(S(=O)(=O)NC4(C)CC4)ccc3n(CC3CCCC3)c2=O)on1 [Example 289] |  |  |  | 280 nM | IC50 [1, 6]: 129 nM |
| Cn1cc(Cn2c(=O)c3cc(S(=O)(=O)NC4(C)CC4)ccc3n(CC3CC(F)(F)C3)c2=O)cn1 [Example 436, 1-[(3,3-Difluorocyclobutyl)methyl]-N-(1-methylcyclopropyl)-3-[(1-methylpyrazol-4-yl)methyl]-2,4-dioxo-quinazoline-6-sulfonamide] | 70 nM | 118 nM |  |  |  |
| Cn1nc(C(C)(C)C)cc1Cn1c(=O)n(C)c(=O)c2cc(S(=O)(=O)NC3(C)CC3)ccc21 [Example 149] |  |  | 518 nM | 293 nM |  |

| Structure (SMILES) | IC50 [1, 3] | IC50 ([2]; read-out: PARG Biochem IC50) | IC50 [1, 4] | IC50 [2, 5] | other results |
| --- | --- | --- | --- | --- | --- |
| Cc1ncc(Cn2c(=O)[nH]c3ccc(S(=O)(=O)NC4(C#N)CC4)cc3c2=O)s1 [Example 386, N-(1-Cyanocyclopropyl)-3-[(2-methylthiazol-5-yl)methyl]-2,4-dioxo-1H-quinazoline-6-sulfonamide] |  |  | 8380 nM | 369 nM |  |
| Cc1ncc(Cn2c(=O)n(C)c(=O)c3cc(S(=O)(=O)NC4(C)CC4)ccc32)s1 [Example 126] |  |  | 214 nM | 240 nM |  |
| Cc1ccc(Cn2c(=O)n(Cc3cnn(C)c3)c(=O)c3cc(S(=O)(=O)NC4(CF)CC4)ccc32)nc1 [Example 537, N-[1-(Fluoromethyl)cyclopropyl]-3-[(1-methylpyrazol-4-yl)methyl]-1-[(5-methyl-2-pyridyl)methyl]-2,4-dioxo-quinazoline-6-sulfonamide] | 181 nM | 189 nM |  |  |  |
| Cc1cc(Cn2c(=O)c3cc(S(=O)(=O)NC4(C)CC4)ccc3n(Cc3noc(C)n3)c2=O)on1 [Example 243] |  |  | 221 nM | 312 nM |  |
| Cn1cc(Cn2c(=O)c3cc(S(=O)(=O)NC4(C)CC4)c(F)cc3n(Cc3cnn(C)c3)c2=O)cn1 [Example 393, 7-Fluoro-N-(1-methylcyclopropyl)-1,3-bis[(1-methylpyrazol-4-yl)methyl]-2,4-dioxo-quinazoline-6-sulfonamide] |  |  |  | 28 nM | IC50 [1, 6]: 84 nM |
| Cn1cc(Cn2c(=O)c3cc(S(=O)(=O)NC4(CF)CC4)ccc3n(Cc3ccc(F)cc3)c2=O)cn1 [Example 419, N-[1-(Fluoromethyl)cyclopropyl]-1-[(4-fluorophenyl)methyl]-3-[(1-methylpyrazol-4-yl)methyl]-2,4-dioxo-quinazoline-6-sulfonamide] | 118 nM | 106 nM |  |  |  |
| Cn1c(=O)n(Cc2cnn3ccccc23)c(=O)c2cc(S(=O)(=O)NC3(C)CC3)ccc21 [Example 434, 1-Methyl-N-(1-methylcyclopropyl)-2,4-dioxo-3-(pyrazolo[1,5-a]pyridin-3-ylmethyl)quinazoline-6-sulfonamide] | 609 nM | 5910 nM |  |  |  |
| Cn1cc(Cn2c(=O)c3cc(S(=O)(=O)NC4(C#N)CC4)ccc3n(CC3CCOC3)c2=O)cn1 (centres unmarked) [Example 377] |  |  | 3990 nM | 96 nM |  |
| Cc1cc(Cn2c(=O)c3cc(S(=O)(=O)NC4(C)CC4)ccc3n(CC3(CO)COC3)c2=O)on1 [Example 340] |  |  | 3480 nM | 389 nM |  |
| Cn1cc(Cn2c(=O)c3cc(S(=O)(=O)NC4(CF)CC4)ccc3n(Cc3cn(C)nn3)c2=O)cn1 [Example 593, N-[1-(Fluoromethyl)cyclopropyl]-3-[(1-methylpyrazol-4-yl)methyl]-1-[(1-methyltriazol-4-yl)methyl]-2,4-dioxo-quinazoline-6-sulfonamide] |  | 112 nM |  |  | IC50 [1, 7]: 523 nM |
| Cc1cc(Cn2c(=O)c3cc(S(=O)(=O)NC4(CF)CC4)ccc3n(Cc3nnc(C)s3)c2=O)on1 [Example 552, N-[1-(Fluoromethyl)cyclopropyl]-3-[(3-methylisoxazol-5-yl)methyl]-1-[(5-methyl-1,3,4-thiadiazol-2-yl)methyl]-2,4-dioxo-quinazoline-6-sulfonamide] | 157 nM | 175 nM |  |  |  |
| Cn1cc(Cn2c(=O)c3cc(S(=O)(=O)NC4(CF)CC4)ccc3n(CC3CC3(F)F)c2=O)cn1 (centres unmarked) [Example 443, 1-[(2,2-Difluorocyclopropyl)methyl]-N-[1-(fluoromethyl)cyclopropyl]-3-[(1-methylpyrazol-4-yl)methyl]-2,4-dioxo-quinazoline-6-sulfonamide] | 67 nM | 58 nM |  |  |  |
| CNC(=O)c1cc(S(=O)(=O)NC2(C)CC2)cc2c(=O)n(Cc3cnn(C)c3)c(=O)[nH]c12 [Example 450, N-Methyl-6-[(1-methylcyclopropyl)sulfamoyl]-3-[(1-methylpyrazol-4-yl)methyl]-2,4-dioxo-1H-quinazoline-8-carboxamide] | 2520 nM | 213 nM |  |  |  |
| Cn1cc(Cn2c(=O)c3cc(S(=O)(=O)NC4(CF)CC4)ccc3n(Cc3cnn(C)c3)c2=O)cn1 [Example 595, N-[1-(Fluoromethyl)cyclopropyl]-1,3-bis[(1-methylpyrazol-4-yl)methyl]-2,4-dioxo-quinazoline-6-sulfonamide] | 134 nM | 48 nM |  |  |  |
| Cc1cc(Cn2c(=O)c(Cc3cnn(C)c3)cc3cc(S(=O)(=O)NC4(C)CC4)ccc32)n(C)n1 [Example 492, 1-[(2,5-Dimethylpyrazol-3-yl)methyl]-N-(1-methylcyclopropyl)-3-[(1-methylpyrazol-4-yl)methyl]-2-oxo-quinoline-6-sulfonamide] | 741 nM | 489 nM |  |  |  |
| Cc1cc(Cn2nc(NC3CCOCC3)c3ccc(S(=O)(=O)NC4(C)CC4)cc3c2=O)on1 [Example 306] |  |  |  | 367 nM | IC50 [1, 6]: 471 nM |
| C#CCn1c(=O)n(Cc2cc(C)no2)c(=O)c2cc(S(=O)(=O)NC3(CF)CC3)ccc21 [Example 532, N-[1-(Fluoromethyl)cyclopropyl]-3-[(3-methylisoxazol-5-yl)methyl]-2,4-dioxo-1-prop-2-ynyl-quinazoline-6-sulfonamide] |  | 120 nM |  |  | IC50 [1, 7]: 87 nM |
